Assay results published in patent publication US9670227B2, “Thienopyrimidine derivatives, a process for their preparation and pharmaceutical compositions containing them” (LES LABORATOIRES SERVIER, priority 2013, dated 2017).
Where two headings read alike, the source gives them in different places.

Assays:
[1] = tested on: H929 multiple myeloma tumour line; experiment: In vitro cytotoxicity, Microculture Tetrazolium Assay; type: cell-based; details: H929 cells, 48 hours exposure, MTT, read-out: IC50 (μM) MTT H929
Experimental: The cytotoxicity studies were carried out on the H929 multiple myeloma tumour line.
The cells are distributed onto microplates and exposed to the test compounds for 48 hours.

Mcl-1 protein = Mcl-1 protein (UniProtKB primary accession number: Q07820) (Homo sapiens, UniProt Q07820); experiment: Inhibition of Mcl-1 by fluorescence polarisation, Method 1; type: binding; details: for IC50: read-out: IC50 (M) Mcl-1 FP
Method in brief: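 FP readout of relative binding potency. Mcl-1 5 nM final, fluorescein-labelled ligand 1 nM final; buffer 10 mM HEPES, 150 mM NaCl, 0.05% Tween 20, pH 7.4; 11-pt dilution series, 5% DMSO final.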

[2] = fluorescence polarisation test, Method 2 values are underlined in the patent (underlining not visible here)
[3] = fluorescence polarisation, Method 1, or Method 2

Sequence of Mcl-1 protein (Q07820 whole entry): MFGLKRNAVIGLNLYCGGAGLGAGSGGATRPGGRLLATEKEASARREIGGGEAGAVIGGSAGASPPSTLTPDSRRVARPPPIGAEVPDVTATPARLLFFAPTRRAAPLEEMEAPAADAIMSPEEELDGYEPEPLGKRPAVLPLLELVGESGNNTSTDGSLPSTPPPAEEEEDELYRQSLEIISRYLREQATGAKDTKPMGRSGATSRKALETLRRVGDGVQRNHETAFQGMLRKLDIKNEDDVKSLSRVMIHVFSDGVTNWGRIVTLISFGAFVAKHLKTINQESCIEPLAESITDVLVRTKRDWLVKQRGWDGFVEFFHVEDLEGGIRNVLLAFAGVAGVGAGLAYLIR

Row | SMILES | IC50 ([1]; Homo sapiens, NCI-H929, 48 h) | IC50 (Mcl-1 protein; [2]) | IC50 (Mcl-1 protein; [3]) | IC50 [1] | percentage fluorescence polarisation inhibition, Mcl-1 FP (Mcl-1 protein; partial inhibitors, @ 10 uM test compound)
1 | Cc1c(-c2c(-c3ccc(F)cc3)sc3ncnc(OC(Cc4ccccc4OCc4ccnc(C5CCCC5)n4)C(=O)O)c23)ccc(OCCN2CCN(C)CC2)c1Cl [Example 28, (2R)-2-{[(5Sa)-5-{3-chloro-2-methyl-4-[2-(4-methylpiperazin-1-yl)ethoxy]phenyl}-6-(4-fluorophenyl)thieno[2,3-d]pyrimidin-4-yl]oxy}-3-{2-[(2-cyclopentylpyrimidin-4-yl)methoxy]phenyl}propanoic acid] | 0.021 µM | 4.5e-09 M |  |  | 
2 | COc1nccc(COc2ccccc2CC(Oc2ncnc3sc(-c4ccco4)c(-c4ccc(OCCN5CCN(C(C)C)CC5)c(Cl)c4C)c23)C(=O)O)n1 [Example 672, (2R)-2-{[(5Sa)-5-(3-chloro-2-methyl-4-{2-[4-(propan-2-yl)piperazin-1-yl]ethoxy}phenyl)-6-(furan-2-yl)thieno[2,3-d]pyrimidin-4-yl]oxy}-3-{2-[(2-methoxypyrimidin-4-yl)methoxy]phenyl}propanoic acid] | 0.019 µM |  | 4.3e-09 M |  | 
3 | Cc1c(-c2c(-c3ccco3)sc3ncnc(OC(Cc4ccccc4OCc4ccn(C)n4)C(=O)O)c23)ccc(OCCN2CCN(C)CC2)c1Cl [Example 246, (2R)-2-{[(5Sa)-5-{3-chloro-2-methyl-4-[2-(4-methylpiperazin-1-yl)ethoxy]phenyl}-6-(furan-2-yl)thieno[2,3-d]pyrimidin-4-yl]oxy}-3-{2-[(1-methyl-1H-pyrazol-3-yl)methoxy]phenyl}propanoic acid] | 0.324 µM | 9.1e-09 M |  |  | 
4 | Cc1c(-c2c(-c3ccc(Cl)o3)sc3ncnc(OC(Cc4ccccc4OCc4ccnc(C(F)(F)F)n4)C(=O)O)c23)ccc(OCCN2CCN(C)CC2)c1Cl [Example 367, (2R)-2-{[6-(5-chlorofuran-2-yl)-(5Sa)-5-{3-chloro-2-methyl-4-[2-(4-methylpiperazin-1-yl)ethoxy]phenyl}thieno[2,3-d]pyrimidin-4-yl]oxy}-3-(2-{[2-(trifluoromethyl)pyrimidin-4-yl]methoxy}phenyl)propanoic acid] | 0.015 µM | 3.2e-09 M |  |  | 
5 | Cc1c(-c2c(-c3ccc(F)o3)sc3ncnc(OC(Cc4ccccc4OCCO)C(=O)O)c23)ccc(OCCN2CCN(C)CC2)c1Cl [Example 193, (2R)-2-{[(5Sa)-5-{3-chloro-2-methyl-4-[2-(4-methylpiperazin-1-yl)ethoxy]phenyl}-6-(5-fluorofuran-2-yl)thieno[2,3-d]pyrimidin-4-yl]oxy}-3-[2-(2-hydroxyethoxy)phenyl]propanoic acid] | 0.116 µM | 5.4e-09 M |  |  | 
6 | Cc1c(-c2c(-c3ccco3)sc3ncnc(OC(Cc4ccccc4OCc4cn(Cc5ccccc5)nn4)C(=O)O)c23)ccc(OCCN2CCN(C)CC2)c1Cl [Example 294, (2R)-3-{2-[(1-benzyl-1H-1,2,3-triazol-4-yl)methoxy]phenyl}-2-{[(5Sa)-5-{3-chloro-2-methyl-4-[2-(4-methylpiperazin-1-yl)ethoxy]phenyl}-6-(furan-2-yl)thieno[2,3-d]pyrimidin-4-yl]oxy}propanoic acid] | 0.886 µM | 1.6e-08 M |  |  | 
7 | Cc1c(-c2c(-c3ccc(F)cc3)sc3ncnc(OC(Cc4ccccc4OCc4ccnc(C(F)(F)F)n4)C(=O)O)c23)ccc(OCCN2CCN(C)CC2)c1Cl [Example 25, (2R)-2-{[(5Sa)-5-{3-chloro-2-methyl-4-[2-(4-methylpiperazin-1-yl)ethoxy]phenyl}-6-(4-fluorophenyl)thieno[2,3-d]pyrimidin-4-yl]oxy}-3-(2-{[2-(trifluoromethyl)pyrimidin-4-yl]methoxy}phenyl)propanoic acid] | 0.074 µM | 5.6e-09 M |  |  | 
8 | COCc1cc(-c2sc3ncnc(OC(Cc4ccccc4OCc4ccnc(OC)n4)C(=O)O)c3c2-c2ccc(OCCN3CCN(C)CC3)c(Cl)c2C)ccc1F [Example 594, (2R)-2-[((5Sa)-5-{3-chloro-2-methyl-4-[2-(4-methylpiperazin-1-yl)ethoxy]phenyl}-6-[4-fluoro-3-(methoxymethyl)phenyl]thieno[2,3-d]pyrimidin-4-yl)oxy]-3-{2-[(2-methoxypyrimidin-4-yl)methoxy]phenyl}propanoic acid] | 0.13 µM |  | 6.1e-09 M |  | 
9 | Cc1c(-c2c(-c3ccco3)sc3ncnc(OC(Cc4ccccc4OCc4cnc(N5CCOCC5)nc4)C(=O)O)c23)ccc(OCCN2CCN(C)CC2)c1Cl [Example 273, (2R)-2-{[(5Sa)-5-{3-chloro-2-methyl-4-[2-(4-methylpiperazin-1-yl)ethoxy]phenyl}-6-(furan-2-yl)thieno[2,3-d]pyrimidin-4-yl]oxy}-3-(2-{[2-(morpholin-4-yl)pyrimidin-5-yl]methoxy}phenyl)propanoic acid] | 0.905 µM | 9.2e-09 M |  |  | 
10 | COc1ccccc1CC(Oc1ncnc2sc(-c3cc(F)c(F)c(OC)c3)c(-c3ccc(OCCN4CCN(C)CC4)c(Cl)c3C)c12)C(=O)O [Example 524, (2R)-2-{[(5Sa)-5-{3-chloro-2-methyl-4-[2-(4-methylpiperazin-1-yl)ethoxy]phenyl}-6-(3,4-difluoro-5-methoxyphenyl)thieno[2,3-d]pyrimidin-4-yl]oxy}-3-(2-methoxyphenyl)propanoic acid] | 0.417 µM |  | 3.1e-08 M |  | 
11 | Cc1csc(-c2sc3ncnc(OC(Cc4ccccc4)C(=O)O)c3c2-c2ccc(OCCN3CCN(C)CC3)c(Cl)c2C)c1 [Example 495, (2R)-2-{[(5Sa)-5-{3-chloro-2-methyl-4-[2-(4-methylpiperazin-1-yl)ethoxy]phenyl}-6-(4-methylthiophen-2-yl)thieno[2,3-d]pyrimidin-4-yl]oxy}-3-phenylpropanoic acid] | 1.19 µM |  | 3.6e-08 M |  | 
12 | CCc1sc2ncnc(OC(Cc3ccccc3OCc3ccnn3CC)C(=O)O)c2c1-c1ccc(OCCN2CCN(C)CC2)c(Cl)c1C [Example 456, (2R)-2-[((5Sa)-5-{3-chloro-2-methyl-4-[2-(4-methylpiperazin-1-yl)ethoxy]phenyl}-6-ethylthieno[2,3-d]pyrimidin-4-yl)oxy]-3-{2-[(1-ethyl-1H-pyrazol-5-yl)methoxy]phenyl}propanoic acid] | 0.513 µM |  | 8e-09 M |  | 
13 | CCCCn1nccc1COc1ccccc1CC(Oc1ncnc2sc(C(F)(F)F)c(-c3ccc(OCCN4CCN(C)CC4)c(Cl)c3C)c12)C(=O)O [Example 615, (2R)-3-{2-[(1-butyl-1H-pyrazol-5-yl)methoxy]phenyl}-2-{[(5Sa)-5-{3-chloro-2-methyl-4-[2-(4-methylpiperazin-1-yl)ethoxy]phenyl}-6-(trifluoromethyl)thieno[2,3-d]pyrimidin-4-yl]oxy}propanoic acid] | 0.292 µM |  | 8e-10 M |  | 
14 | Cc1c(-c2c(-c3ccc(F)o3)sc3ncnc(OC(Cc4ccc(F)cc4OCc4cnccn4)C(=O)O)c23)ccc(OCCN2CCN(C)CC2)c1Cl [Example 691, (2R)-2-{[(5Sa)-5-{3-chloro-2-methyl-4-[2-(4-methylpiperazin-1-yl)ethoxy]phenyl}-6-(5-fluorofuran-2-yl)thieno[2,3-d]pyrimidin-4-yl]oxy}-3-[4-fluoro-2-(pyrazin-2-ylmethoxy)phenyl]propanoic acid] | 0.037 µM |  | 9.6e-09 M |  | 
15 | Cc1c(-c2c(-c3ccc(F)cc3)sc3ncnc(OC(Cc4ccccc4OCc4ccn[nH]4)C(=O)O)c23)ccc(OCCN2CCN(C)CC2)c1Cl [Example 125, (2R)-2-{[(5Sa)-5-{3-chloro-2-methyl-4-[2-(4-methylpiperazin-1-yl)ethoxy]phenyl}-6-(4-fluorophenyl)thieno[2,3-d]pyrimidin-4-yl]oxy}-3-[2-(1H-pyrazol-5-ylmethoxy)phenyl]propanoic acid] | 0.354 µM | 7.3e-09 M |  |  | 
16 | CCc1sc2ncnc(OC(Cc3ccccc3)C(=O)O)c2c1-c1ccc(OCC(=O)N2CCOCC2)c(Cl)c1C [Example 393, (2R)-2-[((5Sa)-5-{3-chloro-2-methyl-4-[2-(morpholin-4-yl)-2-oxoethoxy]phenyl}-6-ethylthieno[2,3-d]pyrimidin-4-yl)oxy]-3-phenylpropanoic acid] | 16.6 µM |  | 4.1e-08 M |  | 
17 | CCc1sc2ncnc(O[C@H](Cc3ccccc3)C(=O)O)c2c1-c1ccc(OCCN(C)C)c(Cl)c1C [Example 408, (2R)-2-[((5Ra)-5-{3-chloro-4-[2-(dimethylamino)ethoxy]-2-methylphenyl}-6-ethylthieno[2,3-d]pyrimidin-4-yl)oxy]-3-phenylpropanoic acid] |  |  |  | 15.9 µM | 26.25% @ 10 uM
18 | Cc1c(-c2c(-c3ccco3)sc3ncnc(OC(Cc4ccccc4OCC(=O)Nc4ccccc4)C(=O)O)c23)ccc(OCCN2CCN(C)CC2)c1Cl [Example 219, (2R)-2-{[(5Sa)-5-{3-chloro-2-methyl-4-[2-(4-methylpiperazin-1-yl)ethoxy]phenyl}-6-(furan-2-yl)thieno[2,3-d]pyrimidin-4-yl]oxy}-3-{2-[2-oxo-2-(phenylamino)ethoxy]phenyl}propanoic acid] | 0.191 µM | 9.9e-09 M |  |  | 
19 | Cc1c(-c2c(-c3cccc(F)c3)sc3ncnc(O[C@H](Cc4ccccc4O)C(=O)O)c23)ccc(OCCN2CCN(C)CC2)c1Cl [Example 711, (2R)-2-{[(5Sa)-5-{3-chloro-2-methyl-4-[2-(4-methylpiperazin-1-yl)ethoxy]phenyl}-6-(3-fluorophenyl)thieno[2,3-d]pyrimidin-4-yl]oxy}-3-(2-hydroxyphenyl)propanoic acid] |  |  | 3.7e-09 M | 0.591 µM | 
